We go through twelve molecules from patent US6858588B2, “Nitrile glycoside useful as a bioenhancer of drugs and nutrients, process of its isolation from moringa oleifera” (Council of Scientific and Industrial Research, priority 2003, dated 2005).

The conditions of series [1]: anaesthetized rat, 1-10 mg/kg I.V; cited from earlier work.
Series [2] has as its system B. subtilis (MTCC121). Kind of series: Bioactivity enhancement of antibiotics (killing, broth/titre assay) against B. subtilis. Format: cell-based, Bacillus subtilis. To be noted: Table 5.
For series [3], the system named is M. smegmatis (MC^2 155). Put plainly: Bioactivity enhancement of antibiotics (killing, broth/titre assay) against M. smegmatis. Format: cell-based, Mycobacterium smegmatis. To be noted: Table 5.
Series [4] has as its system E. coli (CA8000). Put plainly: Bioactivity enhancement of antibiotics (killing, broth/titre assay) against E. coli.
Series [5] deals with C. albicans. Kind of series: Enhancement of anticandidial activity of clotrimazole, broth assay.
Series [6] deals with M.tuberculosis H37Rv (ATCC 27294). Kind of series: Bioactivity enhancement of anti-tubercular drugs, radiometric BACTEC 460 TB system. It counts as cell-based, Mycobacterium tuberculosis. To be noted: BACTEC 460, 12 days.
Series [7] is described as follows: Bioavailability test using gastro-intestinal epithelium (U-tube). Format: in vitro ADME, goat. To be noted: in combination; FIG. 3. An excerpt:
Specially designed U-tubes of glass consisting of two components (opposite-L type) were used in which one open end of an L-shaped was tapered to fit within the end of the other L-tube (as described in U.S. Pat. No. 6,410,059). The membrane of goat gut (initial part) was stretched and fixed to act as the barrier between the two ends such that by joining the two L-tubes, a U-tube was made. Sterile distilled water was then filled in both the sides to equal height/level. The antibiotic/compound was added to the donor tube (tapered) and through spectro-photometer, the transfer of molecule was observed using UV and visible absorption maxima of the respective molecules by taking the OD at defined wavelengths (264 nm for isoniazid).

The subject of series [8] is E. coli cells (CA 8000), λ phage. Kind of series: λ phage adsorption on E. coli cells. To be noted: Cells pretreated with niaziridin @ 1 ug/ml.
Method: Overnight grown bacterial culture (Escherichia coli, CA 8000) was divided into 5 ml of aliquot each in screw cap tubes. One of the tube with the bacterial culture was treated with niaziridin to a final concentration of 1 μg/ml. Both the control and the treated tubes were incubated at 37° C. for 4 hours. The cultures were then infected with λ phage (MOI=10) for 10 minutes at 37° C. (for adsorption) followed by centrifugation at 10000 RPM for 10 minutes at 4° C.
The supernatant and the pellets for both treated and untreated cultures were then compared for the phage titer by plating on top agar containing sensitive bacteria at different dilutions.
The subject of series [9] is E. coli DH5α. Kind of series: Enhancement of bacterial transformation with pUC18 plasmid DNA, DH5α.
Method: (§1) Overnight grown bacterial E. coli DH5α (Sambrook at al^28) cells were diluted to 10 folds in growth medium and treated with niaziridin @1-10 μg/ml for 4 hours at 37° C. in a shaker (200 RPM).
(§2) These log phase cells were then treated with calcium chloride to induce competence and then transformed with pUC18 plasmid DNA and plated on Luria agar plates containing 100 μg/ml ampicillin.
In series [10] the test system is E. coli CA8000. Put plainly: Enhancement of bacterial transformation with pUC18 plasmid DNA, CA8000.
Method: as §1, §2
The conditions of series [11]: human volunteers; formulation containing rifampicin, pyrazinamide and isoniazid; cited from earlier work.
Setting [12] is: Amp (0.01) + Niaziridin 1.0 μg/ml.
[13] abbreviates: Nal (2.0) + Niaziridin 1.0 μg/ml.
The mark [14] stands for this setting: Rif (0.05) + Niaziridin 1.0 μg/ml.
[15] abbreviates: Tet (1.0) + Niaziridin 1.0 μg/ml.
Setting [16] is: Amp (0.1) + Niaziridin 1.0 μg/ml.
[17] abbreviates: Nal (1.0) + Niaziridin 1.0 μg/ml.
[18] abbreviates: Tet (2.0) + Niaziridin 1.0 μg/ml.
Setting [19] is: Cells pretreated with niaziridin at 1 ug/ml.
[20] abbreviates: Cells pretreated with niaziridin at 10 ug/ml.
Where [21] appears, read: Table 4, Amp 6 μg/ml + Niaziridin 0.1 μg/ml.
Setting [22] is: Table 4, Nal 6 μg/ml + Niaziridin 0.1 μg/ml.
[23] abbreviates: Table 4, Rif 20 μg/ml + Niaziridin 0.1 μg/ml.
[24] abbreviates: Table 4, Rif 30 μg/ml + Niaziridin 0.1 μg/ml.
[25] abbreviates: Table 4, Tet 1 μg/ml + Niaziridin 0.1 μg/ml.
Setting [26] is: Table 4, Tet 2 μg/ml + Niaziridin 0.1 μg/ml.

Regarding niaziminin B, the “Hypotensive and bradycardiac effect” value in series [1] was “produced hypotensive and bradycardiac effect”.

Take niazinin B: the “Hypotensive and bradycardiac effect” value in [1] was “produced hypotensive and bradycardiac effect”.

Consider `CCOC(=S)NCc1ccc(OC2OC(C)C(O)C(O)C2O)cc1` (centres unmarked) [niazimicin], for which the “Hypotensive and bradycardiac effect” value in series [1] is “produced hypotensive and bradycardiac effect”.

On to niaziminin A, for which, in series [1], the “Hypotensive and bradycardiac effect” value is “produced hypotensive and bradycardiac effect”.

In the case of `CC1(C)S[C@@H]2[C@H](NC(=O)[C@H](N)c3ccccc3)C(=O)N2[C@H]1C(=O)O` [Amp, ampicillin, reference compound], the “% Survival” value is recorded as 72.5% in series [2] (Amp (0.01) alone); 25.0% in series [3] (Amp (0.1) alone); 3.69% in series [4] (Table 4, Amp 6 μg/ml alone). Besides, the Titre in series [2] (Amp (0.01) alone) is reported as 2.9 × 10^8; in [3] (Amp (0.1) alone) it was 1.0 × 10^8; in series [4] (Table 4, Amp 6 μg/ml alone) it was 8.5 × 10^6.

Consider `CN(C)[C@@H]1C(=O)C(C(N)=O)=C(O)[C@@]2(O)C(=O)C3=C(O)c4c(O)cccc4[C@@](C)(O)[C@H]3C[C@@H]12` [Tet, tetracycline, reference compound], for which the “% Survival” value in series [2] (Tet (1.0) alone) stood at 17.5%; in series [3] (Tet (2.0) alone) it was 30.0%; in series [4] (Table 4, Tet 1 μg/ml alone) it was 1.16%; in series [4] (Table 4, Tet 2 μg/ml alone), 0.58%. For the same molecule, the Titre in [2] (Tet (1.0) alone) is 7.0 × 10^7; in series [3] (Tet (2.0) alone), 1.2 × 10^8; in [4] (Table 4, Tet 1 μg/ml alone), 7.0 × 10^6; in series [4] (Table 4, Tet 2 μg/ml alone), 3.5 × 10^6.

Consider `Clc1ccccc1C(c1ccccc1)(c1ccccc1)n1ccnc1` [Clotrimazole, clotrimazole, reference compound], for which the “Cfu/ml at 36 h” value in series [5] (Clotrimazole alone 0.5 ug/ml) is listed as 23.6 × 10^5 Cfu/ml.

Consider `CC1OC(Oc2ccc(CC#N)cc2O)C(O)C(O)C1O` (centres unmarked) [Niaziridin, NIAZIRIDIN], for which the “% Survival” value is recorded as 14.2% in series [2] (setting [12]); 1.1% in series [2] (setting [13]); 2.7% in series [2] (setting [14]); 5.0% in series [2] (setting [15]); 5.25% in series [3] (setting [16]); 75.0% in [3] (setting [17]). Also, the “% Survival” value in series [3] (setting [14]) is reported as 16.75%; in series [3] (setting [18]) it was 7.5%; in series [4] (setting [21]), 0.69%; in series [4] (setting [22]) it was 0.02%; in [4] (setting [23]), 0.0035%; in series [4] (setting [24]), 0.003%. Also, the “% Survival” value in [4] (setting [25]) was determined as 0.5%; in series [4] (setting [26]), 0.11%. In addition, the “Folds enhancement in killing” value in [2] (setting [12]) was determined as 5.1 folds; in [2] (setting [13]), 7.0 folds; in series [2] (setting [14]) it was 19.4 folds; in series [2] (setting [15]) it was 3.5 folds; in series [3] (setting [16]), 4.7 folds; in series [3] (setting [17]), 1.2 folds. The “Folds enhancement in killing” value in series [3] (setting [14]) was found to be 1.9 folds; in [3] (setting [18]), 4.0 folds. For the same molecule, the Titre is 5.7 × 10^7 in series [2] (setting [12]); 4.6 × 10^6 in [2] (setting [13]); 1.1 × 10^7 in [2] (setting [14]); 2.0 × 10^7 in series [2] (setting [15]); 2.1 × 10^7 in series [3] (setting [16]); 3.0 × 10^8 in [3] (setting [17]). Moreover, the Titre is 6.7 × 10^6 in [3] (setting [14]); 3.0 × 10^7 in series [3] (setting [18]); 1.6 × 10^6 in series [4] (setting [21]); 1.2 × 10^5 in series [4] (setting [22]); 3.9 × 10^3 in [4] (setting [23]); 3.0 × 10^3 in series [4] (setting [24]). The Titre is reported as 3.0 × 10^6 in series [4] (setting [25]) and 7.5 × 10^5 in series [4] (setting [26]). Moreover, in series [2] (range over both Gram (+) strains (B. subtilis and M. smegmatis)), the “Enhancement of activity of rifampicin, ampicillin, nalidixic acid” value is on record as 1.2-19 folds. In [6] (FIG. 1), the “Enhancement of antimycobacterial activity of rifampicin (Growth Index)” value is recorded as “able to enhance”. For the same molecule, the “Enhancement of antimycobacterial activity of isoniazid (Growth Index)” value in series [6] (FIG. 2) is on record as “able to enhance”. Further, the “Uptake of nutrients like Vitamine B12 through the intestinal gut membrane” value in [7] was “able to facilitate the uptake”. For the same molecule, the “Phage titer, Pellet” value in series [8] (MOI 5) is 7.7 10^7 pfu; in series [8] (MOI 10) it was 18.0 10^7 pfu. The “Phage titer, Supernatant” value was 7.7 10^7 pfu in series [8] (MOI 5) and 8.0 10^7 pfu in series [8] (MOI 10). Besides, the “Cfu/ml at 36 h” value in series [5] (Clotrimazole 0.5 ug/ml + Niaziridin 10 ug/ml) was 4.5 × 10^5 Cfu/ml. Moreover, the “Fold enhancement of lethal activity” value in [5] (Clotrimazole 0.5 ug/ml + Niaziridin 10 ug/ml, 36 h) was determined as 5.2 fold. Besides, the “Fold enhancement in DNA transformation” value in series [9] (setting [19]) is reported as 1.9 fold; in [9] (setting [20]) it was 2.3 fold; in [10] (setting [19]) it was 1.9 fold; in series [10] (setting [20]), 5.5 fold. The “Titre (transformants)” value in [9] (setting [19]) is 16.0 10^4; in series [9] (setting [20]), 20.0 10^4; in series [10] (setting [19]), 8.30 10^3; in series [10] (setting [20]) it was 24.0 10^3. The “Fold enhancement in killing over antibiotic alone” value in series [4] (setting [21]) was determined as 5.3 fold; in series [4] (setting [22]), 50.0 fold; in series [4] (setting [23]), 38.8 fold; in [4] (setting [24]), 12.6 fold; in [4] (setting [25]), 2.3 fold; in [4] (setting [26]), 5.2 fold. Besides, the “Enhancement of activity of commonly used antibiotics (rifampicin, tetracycline, nalidixic acid etc)” value in [4] (text summary of Table 4) is on record as “enhanced activity”.

Consider `CO[C@H]1/C=C/O[C@@]2(C)Oc3c(C)c(O)c4c(O)c(c(/C=N/N5CCN(C)CC5)c(O)c4c3C2=O)NC(=O)/C(C)=C\C=C\[C@H](C)[C@H](O)[C@@H](C)[C@@H](O)[C@@H](C)[C@H](OC(C)=O)[C@@H]1C` [Rif, rifampicin], for which the “% Survival” value in series [2] (Rif (0.05) alone) was found to be 52.5%; in series [3] (Rif (0.05) alone) it was 32.5%; in series [4] (Table 2, Rif 20 μg/ml alone), 24.2%; in series [4] (Table 2, Rif 30 μg/ml alone), 21.4%; in series [4] (Table 3, Rif 20 μg/ml alone), 40.0%; in [4] (Table 3, Rif 30 μg/ml alone), 23.3%. The “% Survival” value was 0.0136% in [4] (Table 4, Rif 20 μg/ml alone) and 0.038% in [4] (Table 4, Rif 30 μg/ml alone). The Titre in [2] (Rif (0.05) alone) is on record as 2.1 × 10^8; in series [3] (Rif (0.05) alone) it was 1.3 × 10^7; in series [4] (Table 2, Rif 20 μg/ml alone) it was 3.4 × 10^7; in series [4] (Table 2, Rif 30 μg/ml alone), 3.0 × 10^7; in series [4] (Table 3, Rif 20 μg/ml alone), 1.00 × 10^8; in [4] (Table 3, Rif 30 μg/ml alone) it was 5.81 × 10^7. Further, the Titre in series [4] (Table 4, Rif 20 μg/ml alone) is 1.5 × 10^4; in series [4] (Table 4, Rif 30 μg/ml alone), 3.8 × 10^4.

Take `COC(=S)NCc1ccc(O[C@@H]2O[C@@H](C)[C@H](O)[C@@H](O)[C@H]2O)cc1` [niazinin A]: the “Hypotensive and bradycardiac effect” value in series [1] is “produced hypotensive and bradycardiac effect”.

Regarding `O=C(/C=C/C=C/c1ccc2c(c1)OCO2)N1CCCCC1` [piperine], in series [11], the “Comparative levels and peak concentration of the drugs in the presence of piperine” value was “higher”.

As for `CCn1cc(C(=O)O)c(=O)c2ccc(C)nc21` [Nal, nalidixic acid, reference compound], the “% Survival” value is recorded as 7.75% in series [2] (Nal (2.0) alone); 92.5% in series [3] (Nal (1.0) alone); 1.0% in series [4] (Table 4, Nal 6 μg/ml alone). Further, the Titre is given as 3.1 × 10^7 in series [2] (Nal (2.0) alone); 3.7 × 10^8 in series [3] (Nal (1.0) alone); 6.0 × 10^6 in [4] (Table 4, Nal 6 μg/ml alone).
